Results taken from patent publication US6620828B2, “Thiazole compounds and pharmaceutical compositions for inhibiting protein kinases and methods for their use” (Agouron Pharmaceuticals, Inc., priority 1999, dated 2003).
Where two headings read alike, the source gives them in different places.

Tested on: human umbilical vein endothelial cells (HUVEC)
Assay: HUVEC proliferation assay
Assay type: cell-based
Details: for % inhibition @ 150 nM / inhibition at 0.15 µM: Table I screening results, 150 nM; for inhibition at 0.15 µM / inhibition at 0.05 µM / inhibition at 0.001 µM / inhibition at 0.01 µM: Homo sapiens, HUVEC; for inhibition at 0.05 µM: 50 nM; for inhibition at 0.001 µM: 1 nM; for inhibition at 0.01 µM: 10 nM
In short: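 Exponentially growing HUVEC were serum-starved 24 h (F12K + 1% FBS), pre-treated 1 h with compound (0.1% DMSO final), then stimulated with 6 ng/ml VEGF. Proliferation was read 72 h later by MTT reduction (A595). IC50 came from seven 0.5-log concentrations in triplicate; screens gave % inhibition relative to VEGF-only and starved wells.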

[1] = crude combinatorial amide library
[2] = Inhibition of HUVEC Proliferation, crude combinatorial urea library, read-out: % inhibition @ 50 nM
[3] = table following Table II (untitled), crude combinatorial library
[4] = table following Table II (untitled), crude combinatorial library, read-out: % inhibition @ 10 nM
[5] = Inhibition of HUVEC Proliferation, crude combinatorial urea library, read-out: Inhibition @ 50 nM
[6] = Table II screening results, crude combinatorial amide library
[7] = Table II screening results, crude combinatorial amide library, read-out: % inhibition @ 10 nM
[8] = crude combinatorial urea library, read-out: Inhibition of HUVEC Proliferation % inhibition @ 10 nM
[9] = crude combinatorial urea library, read-out: Inhibition of HUVEC Proliferation % inhibition @ 50 nM

## COc1cc(Nc2nc(N)c(-c3nc(-c4cccc(NC(=O)Cn5cnc6c5c(=O)n(C)c(=O)n6C)c4)cs3)s2)cc(OC)c1OC
[1]
  % inhibition @ 150 nM: 0%

## COc1cc(Nc2nc(N)c(-c3nc(-c4cccc(NC(=O)CC5CCCCC5)c4)cs3)s2)cc(OC)c1OC
[1]
  inhibition at 0.15 µM: 3%

## COc1cccc(C(=O)Nc2cc(-c3csc(-c4sc(NC(=O)NCCN5CCNCC5)nc4N)n3)c(F)cc2F)c1
[2]
  inhibition at 0.05 µM: 46%

## COc1cc(Nc2nc(N)c(-c3nc(-c4cc(NC(=O)C(O)CC(C)C)ccc4C)no3)s2)cc(OC)c1OC (stereo not drawn)
[3]
  inhibition at 0.001 µM: 5%
[4]
  inhibition at 0.01 µM: 69%

## COc1cc(Nc2nc(N)c(-c3nc(-c4cc(NC(=O)C(=O)CC(C)C)ccc4C)no3)s2)cc(OC)c1OC
[3]
  inhibition at 0.001 µM: 7%
[4]
  inhibition at 0.01 µM: 18%

## COc1cccc(C(=O)Nc2cc(-c3noc(-c4sc(NC(=O)NCC(C)(C)C)nc4N)n3)c(F)cc2F)c1
[5]
  inhibition at 0.05 µM: 55%

## COc1cc(Nc2nc(N)c(-c3nc(-c4cccc(NC(=O)c5ccc(C)cc5)c4)cs3)s2)cc(OC)c1OC
[1]
  inhibition at 0.15 µM: 66%

## COc1ccc2[nH]c(C(=O)Nc3cccc(-c4csc(-c5sc(Nc6cc(OC)c(OC)c(OC)c6)nc5N)n4)c3)cc2c1
[1]
  inhibition at 0.15 µM: 1%

## COc1cc(Nc2nc(N)c(-c3nc(-c4cc(NC(=O)Cc5cccnc5)ccc4C)no3)s2)cc(OC)c1OC
[3]
  inhibition at 0.001 µM: -4%
[4]
  inhibition at 0.01 µM: 21%

## CNC(=O)Nc1nc(N)c(-c2nc(-c3cccc(NC(=O)C4CCN(C(C)=O)CC4)c3)cs2)s1
[6]
  inhibition at 0.001 µM: 23%
[7]
  inhibition at 0.01 µM: -15%

## COc1cccc(C(=O)Nc2cc(-c3csc(-c4sc(NC(=O)NC5CC(C)(C)NC(C)(C)C5)nc4N)n3)c(F)cc2F)c1
[2]
  inhibition at 0.05 µM: 89%

## COc1cccc(C(=O)Nc2cccc(-c3csc(-c4sc(NC(=O)NCC(C)(C)C)nc4N)n3)c2)c1
[8]
  inhibition at 0.01 µM: 44%
[9]
  inhibition at 0.05 µM: 34%

## COc1cccc(C(=O)Nc2cc(-c3csc(-c4sc(NC(=O)NCCCN5CCN(C)CC5)nc4N)n3)c(F)cc2F)c1
[2]
  inhibition at 0.05 µM: 95%

## COc1cccc(C(=O)Nc2cccc(-c3csc(-c4sc(NC(=O)NCc5ccccn5)nc4N)n3)c2)c1
[8]
  inhibition at 0.01 µM: -5%
[9]
  inhibition at 0.05 µM: 103%

## COc1cccc(C(=O)Nc2cc(-c3noc(-c4sc(NC(=O)NCCc5ccncc5)nc4N)n3)c(F)cc2F)c1
[5]
  inhibition at 0.05 µM: 99%

## COC(=O)c1ccc(C(=O)Nc2cccc(-c3csc(-c4sc(Nc5cc(OC)c(OC)c(OC)c5)nc4N)n3)c2)cc1
[1]
  inhibition at 0.15 µM: 23%

## COc1cccc(C(=O)Nc2cc(-c3csc(-c4sc(NC(=O)NCCCN(C)C)nc4N)n3)c(F)cc2F)c1
[2]
  inhibition at 0.05 µM: 72%

## COc1ccccc1CC(=O)Nc1cccc(-c2csc(-c3sc(Nc4cc(OC)c(OC)c(OC)c4)nc3N)n2)c1
[1]
  inhibition at 0.15 µM: 58%

## CNC(=O)Nc1nc(N)c(-c2nc(-c3cccc(NC(=O)C4CCCO4)c3)cs2)s1 (stereo not drawn)
[6]
  inhibition at 0.001 µM: 183%
[7]
  inhibition at 0.01 µM: -33%

## CNC(=O)Nc1nc(N)c(-c2nc(-c3cccc(NC(=O)c4cccc(OC)c4)c3)cs2)s1 [drawing 606]
[8]
  inhibition at 0.01 µM: 15%
[9]
  inhibition at 0.05 µM: 115%

## COc1cccc(C(=O)Nc2cccc(-c3csc(-c4sc(NCCC(=O)NCC(=O)O)nc4N)n3)c2)c1
[8]
  inhibition at 0.01 µM: -34%
[9]
  inhibition at 0.05 µM: 7%

## COc1cccc(C(=O)Nc2cc(-c3csc(-c4sc(NC(=O)NCCN(C(C)C)C(C)C)nc4N)n3)c(F)cc2F)c1
[2]
  inhibition at 0.05 µM: 82%

## CNC(=O)Nc1nc(N)c(-c2nc(-c3cccc(NC(=O)Cc4cccnc4)c3)cs2)s1
[6]
  inhibition at 0.001 µM: -7%
[7]
  inhibition at 0.01 µM: -27%

## CNC(=O)Nc1nc(N)c(-c2nc(-c3cccc(NC(=O)c4cccc5cc[nH]c45)c3)cs2)s1
[6]
  inhibition at 0.001 µM: -11%
[7]
  inhibition at 0.01 µM: 60%

## COc1ccc(CC(=O)Nc2cccc(-c3csc(-c4sc(Nc5cc(OC)c(OC)c(OC)c5)nc4N)n3)c2)cc1
[1]
  % inhibition @ 150 nM: 0%

## CNC(=O)Nc1nc(N)c(-c2nc(-c3cccc(NC(=O)/C=C(\C)c4ccccc4C)c3)cs2)s1
[6]
  inhibition at 0.001 µM: -2%
[7]
  inhibition at 0.01 µM: 20%

## CCC(CO)NC(=O)Nc1nc(N)c(-c2nc(-c3cc(NC(=O)c4cccc(OC)c4)c(F)cc3F)no2)s1 (stereo not drawn)
[5]
  inhibition at 0.05 µM: 81%

## COc1cccc(C(=O)Nc2cc(-c3noc(-c4sc(NC(=O)NCCN5CCNCC5)nc4N)n3)c(F)cc2F)c1
[5]
  inhibition at 0.05 µM: 76%

## COc1cc(Nc2nc(N)c(-c3nc(-c4cc(NC(=O)c5ccc(=O)oc5)ccc4C)no3)s2)cc(OC)c1OC
[3]
  inhibition at 0.001 µM: 30%
[4]
  inhibition at 0.01 µM: 51%

## COc1cc(Nc2nc(N)c(-c3nc(-c4cccc(NC(=O)c5scc(S(=O)(=O)c6ccc(Cl)cc6)c5C)c4)cs3)s2)cc(OC)c1OC
[1]
  inhibition at 0.15 µM: 10%

## COc1cccc(C(=O)Nc2cccc(-c3csc(-c4sc(NC(=O)NCCN5CCCC5)nc4N)n3)c2)c1
[8]
  inhibition at 0.01 µM: 7%
[9]
  inhibition at 0.05 µM: 17%

## COc1cccc(C(=O)Nc2cccc(-c3csc(-c4sc(NC(=O)NC5CCS(=O)(=O)C5)nc4N)n3)c2)c1 (stereo not drawn)
[8]
  inhibition at 0.01 µM: 9%
[9]
  inhibition at 0.05 µM: 86%

## COc1cccc(C(=O)Nc2cc(-c3csc(-c4sc(NC(=O)NC5CCN(Cc6ccccc6)CC5)nc4N)n3)c(F)cc2F)c1
[2]
  inhibition at 0.05 µM: 66%

## COc1cc(Nc2nc(N)c(-c3nc(-c4cccc(NC(=O)c5ccc6[nH]cnc6c5)c4)cs3)s2)cc(OC)c1OC
[1]
  inhibition at 0.15 µM: -30%

## COc1cccc(C(=O)Nc2cccc(-c3csc(-c4sc(NC(=O)NCCCN5CCCC5)nc4N)n3)c2)c1
[8]
  inhibition at 0.01 µM: 1%
[9]
  inhibition at 0.05 µM: 101%

## COc1cccc(C(=O)Nc2cccc(-c3csc(-c4sc(NC(=O)N[C@H](CO)Cc5c[nH]cn5)nc4N)n3)c2)c1
[8]
  inhibition at 0.01 µM: 16%
[9]
  inhibition at 0.05 µM: 19%

## CCCCN(CCCC)CCCNC(=O)Nc1nc(N)c(-c2nc(-c3cccc(NC(=O)c4cccc(OC)c4)c3)cs2)s1
[8]
  inhibition at 0.01 µM: -5%
[9]
  inhibition at 0.05 µM: 62%

## COc1cccc(C(=O)Nc2cc(-c3noc(-c4sc(NC(=O)NCCc5c[nH]cn5)nc4N)n3)c(F)cc2F)c1
[5]
  inhibition at 0.05 µM: 72%

## COc1cccc(C(=O)Nc2cc(-c3noc(-c4sc(NC(=O)NCC#N)nc4N)n3)c(F)cc2F)c1
[5]
  inhibition at 0.05 µM: 12%

## COc1cccc(C(=O)Nc2cccc(-c3csc(-c4sc(NC(=O)NCc5ccc(N(C)C)cc5)nc4N)n3)c2)c1
[8]
  inhibition at 0.01 µM: 19%
[9]
  inhibition at 0.05 µM: 67%

## COc1cc(Nc2nc(N)c(-c3nc(-c4cc(NC(=O)c5ccccc5C(C)C)ccc4C)no3)s2)cc(OC)c1OC
[3]
  inhibition at 0.001 µM: 6%
[4]
  inhibition at 0.01 µM: 11%

## COc1cccc(C(=O)Nc2cccc(-c3csc(-c4sc(NC(=O)NCC(C)(C)CN(C)C)nc4N)n3)c2)c1
[8]
  inhibition at 0.01 µM: -25%
[9]
  inhibition at 0.05 µM: 36%

## COc1cccc(CC(=O)Nc2ccc(C)c(-c3noc(-c4sc(Nc5cc(OC)c(OC)c(OC)c5)nc4N)n3)c2)c1
[3]
  inhibition at 0.001 µM: 12%
[4]
  inhibition at 0.01 µM: 35%

## COc1cccc(C(=O)Nc2cccc(-c3csc(-c4sc(NC(=O)NCc5ccc(S(N)(=O)=O)cc5)nc4N)n3)c2)c1
[8]
  inhibition at 0.01 µM: 26%
[9]
  inhibition at 0.05 µM: 36%

## COc1cccc(C(=O)Nc2cc(-c3noc(-c4sc(NC(=O)NCCc5ccc(S(N)(=O)=O)cc5)nc4N)n3)c(F)cc2F)c1
[5]
  inhibition at 0.05 µM: 83%

## COc1cc(Nc2nc(N)c(-c3nc(-c4cc(NC(=O)c5cccc6cc[nH]c56)ccc4C)no3)s2)cc(OC)c1OC
[3]
  inhibition at 0.001 µM: 34%
[4]
  inhibition at 0.01 µM: 41%

## COc1cc(Nc2nc(N)c(-c3nc(-c4cccc(NC(=O)Cc5ccc(Cl)cc5Cl)c4)cs3)s2)cc(OC)c1OC
[1]
  inhibition at 0.15 µM: -20%

## COc1cccc(C(=O)Nc2cc(-c3noc(-c4sc(NC(=O)NCS(=O)(=O)O)nc4N)n3)c(F)cc2F)c1
[5]
  inhibition at 0.05 µM: 30%
